Legend:
[1] = molecular target: T1, Steroid 17-alpha-hydroxylase/17,20 lyase (Homo sapiens, UniProt P05093); assay: Inhibition of Cytochrome P450 17; Inactive
T1 sequence (P05093 whole entry): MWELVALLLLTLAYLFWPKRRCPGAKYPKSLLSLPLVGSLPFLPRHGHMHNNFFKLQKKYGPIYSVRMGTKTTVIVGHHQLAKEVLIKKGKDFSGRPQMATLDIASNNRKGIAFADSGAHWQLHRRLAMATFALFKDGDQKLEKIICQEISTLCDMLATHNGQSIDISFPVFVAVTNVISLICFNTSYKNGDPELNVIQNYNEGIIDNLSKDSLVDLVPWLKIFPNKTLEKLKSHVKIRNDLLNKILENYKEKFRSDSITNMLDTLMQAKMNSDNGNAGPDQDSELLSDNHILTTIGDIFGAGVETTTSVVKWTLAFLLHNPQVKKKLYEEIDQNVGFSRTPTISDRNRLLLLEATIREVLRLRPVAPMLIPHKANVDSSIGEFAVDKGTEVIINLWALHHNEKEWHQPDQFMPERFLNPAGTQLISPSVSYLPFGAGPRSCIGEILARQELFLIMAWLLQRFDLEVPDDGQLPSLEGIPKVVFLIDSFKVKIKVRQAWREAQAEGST

[2] = molecular target: T1, Steroid 17-alpha-hydroxylase/17,20 lyase; assay: Inhibition of Cytochrome P450 17

IA [1] | Inhibition [2] | Structure (SMILES)
Not Active |  | N#Cc1ccc(Cn2ccnc2)c2oc3ccccc3c(=O)c12
 | 42 nM | O=c1c2ccccc2oc2c(Br)ccc(Cn3ccnc3)c12
